Laboratory results as given in patent US11312705B2, “Heteroaryl[4,3-C]pyrimidine-5-amine derivative, preparation method therefor, and medical uses thereof” (Jiangsu Hengrui Medicine Co., Ltd., priority 2017, dated 2022).

Assays:
Type in all cases: cell-based
[1] = target: adenosine A2b receptor (A2bR) (Homo sapiens (Human), UniProt P29275); experiment: Inhibition of adenosine A2b receptor cAMP signaling pathway (HTRF cAMP, CHO-K1/A2bR cells); conditions: Table 3; for IC50: CHO-K1/A2bR cells, ethyl carbazole 1 μM, cAMP HTRF; for IC50 ratio (A2bR/A2aR): selectivity A2bR over A2aR
Chain of adenosine A2b receptor (A2bR) (P29275 whole entry): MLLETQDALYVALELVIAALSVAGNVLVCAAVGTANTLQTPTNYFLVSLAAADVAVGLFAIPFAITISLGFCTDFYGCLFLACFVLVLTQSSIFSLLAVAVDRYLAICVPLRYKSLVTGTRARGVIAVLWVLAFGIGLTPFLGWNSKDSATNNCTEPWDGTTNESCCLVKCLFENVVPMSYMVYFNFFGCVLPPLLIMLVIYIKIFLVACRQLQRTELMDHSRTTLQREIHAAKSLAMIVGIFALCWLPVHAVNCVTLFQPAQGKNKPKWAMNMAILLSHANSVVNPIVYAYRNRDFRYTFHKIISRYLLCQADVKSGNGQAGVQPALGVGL
Excerpt: (§1) Test Example 1. Determination of the inhibition activity of the compounds of the present invention on the adenosine A2a receptor (A2aR) cAMP signaling pathway, the adenosine A2b receptor (A2bR) cAMP signaling pathway, the adenosine A1 receptor (A1R) cAMP signaling pathway and the adenosine A3 receptor (A3R) cAMP signaling pathway.
(§2) The inhibition activity of the compounds of the present invention on the adenosine A2a receptor cAMP signaling pathway, the adenosine A2b receptor cAMP signaling pathway, the adenosine A1 receptor cAMP signaling pathway and the adenosine A3 receptor cAMP signaling pathway was determined by the following method. The experimental method is briefly described as follows:
2.4 Adenosine A2b receptor (A2bR)
CHO-K1/A2bR cells were cultured in DMEM/F12 medium containing 10% fetal bovine serum and 1 mg/ml G418. The cells were digested with the cell separation buffer during the experiment. The cells were resuspended in the balanced salt buffer containing 20 mM HEPES and 0.1% bovine serum albumin and counted, and the cell density was adjusted to 10^6 cells/ml. In the 384-well plate, each well was added with 5 μl of cell suspension, and 2.5 μl of test compound (4× concentration) formulated with the balanced salt buffer containing 20 mM HEPES, 0.1% bovine serum albumin, 54 μM rolipram and 2.7 U/ml adenosine deaminase, and the plate was incubated at room temperature for 30 minutes. Each well was then added with 2.5 μl of […] (4× concentration) (Torcis, 1691/10) formulated with the balanced salt buffer containing 20 mM HEPES, 0.1% bovine serum albumin, 54 μM rolipram and 2.7 U/ml adenosine deaminase, and the plate was incubated at room temperature for 30 minutes. The final concentrations of the compounds were: 100000, 10000, 1000, 100, 10, 1, 0.1 and 0 nM. The final concentration of […] was 1 μM. Intracellular cAMP concentration was detected with the cAMP dynamic 2 kit. cAMP-d2 and Anti-cAMP-Eu-Cryptate were diluted respectively with the cAMP lysis buffer at a ratio of 1:4. Each well was added with 5 μl of diluted cAMP-d2, followed by addition of 5 μl of diluted Anti-cAMP-Eu-Cryptate, and the plate was incubated at room temperature in the dark for 1 hour. The HTRF signal values were read by the PHERAstar multi-function microplate reader.

[2] = target: adenosine A2a receptor (A2aR) (Homo sapiens (Human), UniProt P29274); experiment: Inhibition of adenosine A2a receptor cAMP signaling pathway (HTRF cAMP, CHO-K1/A2aR cells)
Chain of adenosine A2a receptor (A2aR) (P29274 whole entry): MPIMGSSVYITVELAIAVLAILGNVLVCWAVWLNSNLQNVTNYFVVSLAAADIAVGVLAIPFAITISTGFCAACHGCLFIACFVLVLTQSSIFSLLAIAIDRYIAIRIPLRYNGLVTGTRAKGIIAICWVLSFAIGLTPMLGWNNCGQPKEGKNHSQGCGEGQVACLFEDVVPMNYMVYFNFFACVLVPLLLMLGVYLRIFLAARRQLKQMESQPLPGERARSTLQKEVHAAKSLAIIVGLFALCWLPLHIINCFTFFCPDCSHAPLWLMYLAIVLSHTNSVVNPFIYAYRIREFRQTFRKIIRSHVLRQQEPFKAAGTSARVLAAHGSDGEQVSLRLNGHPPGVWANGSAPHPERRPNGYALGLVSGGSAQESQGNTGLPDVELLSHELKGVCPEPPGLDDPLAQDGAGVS
Excerpt: as §1, §2
2.1 Adenosine A2a Receptor
CHO-K1/A2aR cells were cultured in DMEM/F12 medium containing 10% fetal bovine serum and 800 μg/ml bleomycin. The cells were digested with the cell separation buffer during the experiment. The cells were resuspended in the balanced salt buffer containing 20 mM HEPES and 0.1% bovine serum albumin and counted, and the cell density was adjusted to 10^6 cells/ml. In the 384-well plate, each well was added with 5 μl of cell suspension, and 2.5 μl of test compound (4× concentration) formulated with the balanced salt buffer containing 20 mM HEPES, 0.1% bovine serum albumin, 54 μM rolipram and 2.7 U/ml adenosine deaminase, and the plate was incubated at room temperature for 30 minutes. Each well was then added with 2.5 μl of […] (4× concentration) formulated with the balanced salt buffer containing 20 mM HEPES, 0.1% bovine serum albumin, 54 μM rolipram and 2.7 U/ml adenosine deaminase, and the plate was incubated at room temperature for 30 minutes. The final concentrations of the compounds were: 10000, 2000, 400, 80, 16, 3.2, 0.64, 0.128, 0.0256, 0.00512, and 0.001024 nM. The final concentration of […] was 20 nM. Intracellular cAMP concentration was detected with the cAMP dynamic 2 kit. cAMP-d2 and Anti-cAMP-Eu-Cryptate were diluted respectively with the cAMP lysis buffer at a ratio of 1:4. Each well was added with 5 μl of diluted cAMP-d2, followed by addition of 5 μl of diluted Anti-cAMP-Eu-Cryptate, and the plate was incubated at room temperature in the dark for 1 hour. The HTRF signal values were read by the PHERAstar multi-function microplate reader.

[3] = target: adenosine A3 receptor (A3R) (Homo sapiens (Human), UniProt P0DMS8); experiment: Inhibition of adenosine A3 receptor cAMP signaling pathway (HTRF cAMP, CHO-K1/A3R cells); conditions: Table 2
Chain of adenosine A3 receptor (A3R) (P0DMS8 whole entry): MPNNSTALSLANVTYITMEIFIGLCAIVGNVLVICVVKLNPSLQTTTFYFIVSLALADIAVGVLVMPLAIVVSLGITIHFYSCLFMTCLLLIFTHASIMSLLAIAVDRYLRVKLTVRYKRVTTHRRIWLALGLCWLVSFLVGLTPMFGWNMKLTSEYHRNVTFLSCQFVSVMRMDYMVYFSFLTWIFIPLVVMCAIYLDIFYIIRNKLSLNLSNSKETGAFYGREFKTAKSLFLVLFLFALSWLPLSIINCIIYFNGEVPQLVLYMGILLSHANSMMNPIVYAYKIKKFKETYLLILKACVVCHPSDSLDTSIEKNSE
Excerpt: as §1, §2
2.3 Adenosine A3 receptor
(§3) CHO-K1/A3R cells were cultured in DMEM/F12 medium containing 10% fetal bovine serum and 10 μg/ml puromycin. The cells were digested with the cell separation buffer during the experiment. The cells were resuspended in the balanced salt buffer containing 20 mM HEPES and 0.1% bovine serum albumin and counted, and the cell density was adjusted to 5×10^5 cells/ml. In the 384-well plate, each well was added with 12.5 μl of cell suspension, and 6.25 μl of test compound (4× concentration) formulated with the balanced salt buffer containing 20 mM HEPES, 0.1% bovine serum albumin, 54 μM rolipram and 2.7 U/ml adenosine deaminase, and the plate was incubated at room temperature for 30 minutes. Each well was then added with 6.25 μl of forskolin and 2Cl-IB-MECA (4× concentration) formulated with the balanced salt buffer containing 20 mM HEPES, 0.1% bovine serum albumin, 54 μM rolipram and 2.7 U/ml adenosine deaminase, and the plate was incubated at room temperature for 30 minutes. The final concentrations of the compounds were: 100000, 10000, 1000, 100, 10, 1, 0.1 and 0 nM. The final concentration of forskolin was 10 μM. The final concentration of 2Cl-IB-MECA was 5 nM. Intracellular cAMP concentration was detected with the cAMP dynamic 2 kit. cAMP-d2 and Anti-cAMP-Eu-Cryptate were diluted respectively with the cAMP lysis buffer at a ratio of 1:4. Each well was added with 12.5 μl of diluted cAMP-d2, followed by addition of 12.5 μl of diluted Anti-cAMP-Eu-Cryptate, and the plate was incubated at room temperature in the dark for 1 hour. The HTRF signal values were read by the PHERAstar multi-function microplate reader.

[4] = target: adenosine A1 receptor (A1R) (Homo sapiens (Human), UniProt P30542); experiment: Inhibition of adenosine A1 receptor cAMP signaling pathway (HTRF cAMP, CHO-K1/A1R cells); conditions: Table 2
Chain of adenosine A1 receptor (A1R) (P30542 whole entry): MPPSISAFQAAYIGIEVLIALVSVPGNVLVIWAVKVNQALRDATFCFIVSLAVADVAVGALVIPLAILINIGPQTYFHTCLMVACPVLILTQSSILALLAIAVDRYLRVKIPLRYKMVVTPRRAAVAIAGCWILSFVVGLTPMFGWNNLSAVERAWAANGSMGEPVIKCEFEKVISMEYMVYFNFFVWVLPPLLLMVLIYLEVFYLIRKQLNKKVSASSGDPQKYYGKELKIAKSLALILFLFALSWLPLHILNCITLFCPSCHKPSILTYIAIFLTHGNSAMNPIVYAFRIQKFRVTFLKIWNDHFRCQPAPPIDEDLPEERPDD
Excerpt: as §1, §2
2.2 Adenosine A1 receptor
as §3, with “CHO-K1/A1R cells were” for “CHO-K1/A3R cells were”, “serum and 1 mg/ml G418. The cells” for “serum and 10 μg/ml puromycin. The cells”, “cells were then resuspended in” for “cells were resuspended in”, “forskolin and N6-cyclopentyladenosine (4× concentration)” for “forskolin and 2Cl-IB-MECA (4× concentration)”, “concentration of CPA was 10” for “concentration of 2Cl-IB-MECA was 5”, “CPA was 10 nM. Intracellular” for “2Cl-IB-MECA was 5 nM. Intracellular”

Row | SMILES | IC50 [1] [nM] | IC50 ratio (A2bR/A2aR) [1] | IC50 ([2]; Table 1, ethyl carbazole 20 nM) [nM] | IC50 ([2]; Table 3, ethyl carbazole 20 nM) [nM] | IC50 ratio (A3R/A2aR) [3] | IC50 ([3]; CHO-K1/A3R cells, forskolin 10 μM, 2Cl-IB-MECA 5 nM, cAMP HTRF) [nM] | IC50 ([2]; Table 2, ethyl carbazole 20 nM) [nM] | IC50 ([4]; CHO-K1/A1R cells, forskolin 10 μM, CPA 10 nM, cAMP HTRF) [nM] | IC50 ratio (A1R/A2aR) ([4]; selectivity A1R over A2aR)
1 | Cc1cc(-c2c(-c3ccccc3)nc(N)n3cnnc23)cc(C(F)(F)F)n1 [Example 1, 8-(2-Methyl-6-(trifluoromethyl)pyridin-4-yl)-7-phenyl-[1,2,4]triazolo[4,3-c]pyrimidin-5-amine] | 58.5 | 254 | 0.23 | 0.23 | – | – | – | – | –
2 | Nc1nc(-c2ccccc2)c(-c2ccc3ncccc3c2)c2nncn12 [Example 3, 7-Phenyl-8-(quinolin-6-yl)-[1,2,4]triazolo[4,3-c]pyrimidin-5-amine] | – | – | 0.07 | – | 2.9 × 10^4 | 2000 | 0.07 | 18 | 257
3 | Cc1cc(-c2c(-c3ccc(C)o3)nc(N)n3cnnc23)cc(C(F)(F)F)n1 [Example 8, 8-(2-Methyl-6-(trifluoromethyl)pyridin-4-yl)-7-(5-methylfuran-2-yl)-[1,2,4]triazolo[4,3-c]pyrimidin-5-amine] | 203 | 1125 | 0.18 | 0.18 | – | – | – | – | –
4 | Nc1nc(-c2ccccc2)c(-c2ccc3[nH]ncc3c2)c2nncn12 [Example 10, 8-(1H-indazol-5-yl)-7-phenyl-[1,2,4]triazolo[4,3-c]pyrimidin-5-amine] | 91 | 350 | 0.26 | 0.26 | – | – | – | – | –
5 | Cc1cc(-c2c(-c3ccccc3)nc(N)n3cnnc23)cc(C2CC2)n1 [Example 30, 8-(2-Cyclopropyl-6-methylpyridin-4-yl)-7-phenyl-[1,2,4]triazolo[4,3-c]pyrimidin-5-amine] | 70.9 | 92 | 0.77 | 0.77 | – | – | – | – | –
6 | Cc1cc(-c2c(-c3ccccc3F)nc(N)n3cnnc23)cc(C(F)(F)F)n1 [Example 33, 7-(2-Fluorophenyl)-8-(2-methyl-6-(trifluoromethyl)pyridin-4-yl)-[1,2,4]triazolo[4,3-c]pyrimidin-5-amine] | 134 | 76 | 1.77 | 1.77 | – | – | – | – | –
7 | CC(C)n1cc(-c2c(-c3ccccc3)nc(N)n3cnnc23)ccc1=O [Example 43, 5-(5-Amino-7-phenyl-[1,2,4]triazolo[4,3-c]pyrimidin-8-yl)-1-isopropylpyridin-2(1H)-one] | – | – | 0.2 | – | – | – | – | – | –

Continued, values first:

Row | IC50 [1] [nM] | IC50 ratio (A2bR/A2aR) [1] | IC50 ([2]; Table 1, ethyl carbazole 20 nM) [nM] | IC50 ([2]; Table 3, ethyl carbazole 20 nM) [nM] | IC50 ratio (A3R/A2aR) [3] | IC50 ([3]; CHO-K1/A3R cells, forskolin 10 μM, 2Cl-IB-MECA 5 nM, cAMP HTRF) [nM] | IC50 ([2]; Table 2, ethyl carbazole 20 nM) [nM] | IC50 ([4]; CHO-K1/A1R cells, forskolin 10 μM, CPA 10 nM, cAMP HTRF) [nM] | IC50 ratio (A1R/A2aR) ([4]; selectivity A1R over A2aR) | SMILES
8 | 98.9 | 582 | 0.17 | 0.17 | – | – | – | – | – | Cc1cc(-c2c(-c3ccc(F)cc3)nc(N)n3cnnc23)cc(Cl)n1 [Example 15, 8-(2-Chloro-6-methylpyridin-4-yl)-7-(4-fluorophenyl)-[1,2,4]triazolo[4,3-c]pyrimidin-5-amine]
9 | 122 | 194 | 0.63 | 0.63 | – | – | – | – | – | Cc1cc(-c2c(-c3ccc(F)cc3)nc(N)n3cnnc23)cc(C(F)(F)F)n1 [Example 16, 7-(4-Fluorophenyl)-8-(2-methyl-6-(trifluoromethyl)pyridin-4-yl)-[1,2,4]triazolo[4,3-c]pyrimidin-5-amine]
10 | 86.3 | 157 | 0.55 | 0.55 | – | – | – | – | – | Cc1cc(-c2c(-c3cccc(F)c3)nc(N)n3cnnc23)cc(C(F)(F)F)n1 [Example 29, 7-(3-Fluorophenyl)-8-(2-methyl-6-(trifluoromethyl)pyridin-4-yl)-[1,2,4]triazolo[4,3-c]pyrimidin-5-amine]
11 | 170 | 83 | 2.04 | 2.04 | – | – | – | – | – | Cc1cc(-c2c(-c3ccc(F)cc3F)nc(N)n3cnnc23)cc(Cl)n1 [Example 34, 8-(2-Chloro-6-methylpyridin-4-yl)-7-(2,4-difluorophenyl)-[1,2,4]triazolo[4,3-c]pyrimidin-5-amine]
12 | 255 | 72 | 3.55 | 3.55 | – | – | – | – | – | Cc1cc(-c2c(-c3ccc(Cl)cc3F)nc(N)n3cnnc23)cc(Cl)n1 [Example 50, 7-(4-Chloro-2-fluorophenyl)-8-(2-chloro-6-methylpyridin-4-yl)-[1,2,4]triazolo[4,3-c]pyrimidin-5-amine]
13 | – | – | 0.35 | – | – | – | – | – | – | Cc1cc(-c2c(-c3ccc(Cl)cc3)nc(N)n3cnnc23)cc(CF)n1 [Example 53, 7-(4-Chlorophenyl)-8-(2-(fluoromethyl)-6-methylpyridin-4-yl)-[1,2,4]triazolo[4,3-c]pyrimidin-5-amine]
14 | – | – | 0.48 | – | – | – | – | – | – | Cc1cc(-c2c(-c3ccc(Cl)cc3)nc(N)n3cnnc23)cc(C)n1 [Example 54, 7-(4-Chlorophenyl)-8-(2,6-dimethylpyridin-4-yl)-[1,2,4]triazolo[4,3-c]pyrimidin-5-amine]
